Source: patent US11931424B2, “Combination MCL-1 inhibitors with anti-body drug conjugates” (Gilead Sciences, Inc., priority 2021, dated 2024)

Test system: panel of breast cancer cell lines
Test: Compound A with targeted agents and chemotherapies, 72-hour in vitro proliferation assays
Format: cell-based
Details: 72-hour proliferation
[1] = AU565 cell line, compound A × partner
[2] = BT-20 cell line, compound A × partner
[3] = BT-474 cell line, compound A × partner
[4] = BT-549 cell line, compound A × partner
[5] = CAL-51 cell line, compound A × partner
[6] = CAL-85-1 cell line, compound A × partner
[7] = CAL-120 cell line, compound A × partner
[8] = CAL-148 cell line, compound A × partner
[9] = CAMA-1 cell line, compound A × partner
[10] = DU-4475 cell line, compound A × partner
[11] = EVSA-T cell line, compound A × partner
[12] = MCF7 cells, Compound A × partner agent
[13] = MDA-MB-175-VII cells, Compound A × partner agent
[14] = MDA-MB-231 cells, Compound A × partner agent
[15] = MDA-MB-361 cells, Compound A × partner agent
[16] = MDA-MB-436 cells, Compound A × partner agent
[17] = MDA-MB-453 cells, Compound A × partner agent
[18] = MDA-MB-468 cells, Compound A × partner agent
[19] = SK-BR-3 cells, Compound A × partner agent
[20] = SUM159PT cells, combination of compound A with the named agent
[21] = T47D cells, combination of compound A with the named agent
[22] = ZR-75-1 cells, combination of compound A with the named agent
[23] = ZR-75-30 cells, combination of compound A with the named agent

C[C@]12CC[C@@H]3c4ccc(O)cc4C[C@@H](CCCCCCCCC[S+]([O-])CCCC(F)(F)C(F)(F)F)[C@H]3[C@@H]1CC[C@@H]2O (stereo partly drawn) [Fulvestrant]
Bliss Volume [1]: 6.82 | HSA volume [1]: 2.40 | Loewe Volume [1]: 4.57 | Synergy Score [1]: 3.43 | Bliss Volume [2]: 3.55 | HSA volume [2]: 3.62 | Loewe Volume [2]: 3.44 | Synergy Score [2]: 8.19 | Bliss Volume [3]: 2.68 | HSA volume [3]: 1.47 | Loewe Volume [3]: 1.42 | Synergy Score [3]: 6.48 | Bliss Volume [4]: 3.56 | HSA volume [4]: 7.74 | Loewe Volume [4]: 7.73 | Synergy Score [4]: 6.08 | Bliss Volume [5]: 0.71 | HSA volume [5]: −1.89 | Loewe Volume [5]: 0.82 | Synergy Score [5]: 0.47 | Bliss Volume [6]: −4.57 | HSA volume [6]: −0.20 | Loewe Volume [6]: −0.68 | Synergy Score [6]: 2.63 | Bliss Volume [7]: −4.96 | HSA volume [7]: −4.48 | Loewe Volume [7]: −4.09 | Synergy Score [7]: 0.28 | Bliss Volume [8]: −1.80 | HSA volume [8]: −2.13 | Loewe Volume [8]: −0.78 | Synergy Score [8]: 4.58 | Bliss Volume [9]: 4.38 | HSA volume [9]: −0.63 | Loewe Volume [9]: −0.83 | Synergy Score [9]: 2.09 | Bliss Volume [10]: 4.93 | HSA volume [10]: 0.13 | Loewe Volume [10]: 4.51 | Synergy Score [10]: 2.58 | Bliss Volume [11]: 6.75 | HSA volume [11]: 1.08 | Loewe Volume [11]: 1.59 | Synergy Score [11]: 3.72 | Bliss Volume (HCC38, compound A × partner): −3.19 | HSA volume (HCC38, compound A × partner): −1.37 | Loewe Volume (HCC38, compound A × partner): −1.82 | Synergy Score (HCC38, compound A × partner): 2.63 | Bliss Volume (HCC70, compound A × partner): 10.34 | HSA volume (HCC70, compound A × partner): 9.70 | Loewe Volume (HCC70, compound A × partner): 10.67 | Synergy Score (HCC70, compound A × partner): 17.18 | Bliss Volume (HCC1143, compound A × partner): 0.82 | HSA volume (HCC1143, compound A × partner): −4.16 | Loewe Volume (HCC1143, compound A × partner): 0.02 | Synergy Score (HCC1143, compound A × partner): 2.79 | Bliss Volume (HCC1569, compound A × partner): 3.84 | HSA volume (HCC1569, compound A × partner): 4.70 | Loewe Volume (HCC1569, compound A × partner): 5.59 | Synergy Score (HCC1569, compound A × partner): 5.92 | Bliss Volume (HCC1806, compound A × partner): −0.20 | HSA volume (HCC1806, compound A × partner): −0.86 | Loewe Volume (HCC1806, compound A × partner): 1.90 | Synergy Score (HCC1806, compound A × partner): 2.60 | Bliss Volume (HCC1937, compound A × partner): 2.31 | HSA volume (HCC1937, compound A × partner): −0.65 | Loewe Volume (HCC1937, compound A × partner): 2.38 | Synergy Score (HCC1937, compound A × partner): 2.38 | Bliss Volume (HCC1954, compound A × partner): 11.35 | HSA volume (HCC1954, compound A × partner): 12.18 | Loewe Volume (HCC1954, compound A × partner): 11.84 | Synergy Score (HCC1954, compound A × partner): 16.73 | Bliss Volume (HCC2218, compound A × partner): 1.16 | HSA volume (HCC2218, compound A × partner): 1.89 | Loewe Volume (HCC2218, compound A × partner): −1.02 | Synergy Score (HCC2218, compound A × partner): 3.85 | Bliss Volume (HDQ-P1, compound A × partner): −5.92 | HSA volume (HDQ-P1, compound A × partner): −6.15 | Loewe Volume (HDQ-P1, compound A × partner): −5.56 | Synergy Score (HDQ-P1, compound A × partner): 0.42 | Bliss Volume (HMC-1-8, compound A × partner): 10.58 | HSA volume (HMC-1-8, compound A × partner): 7.21 | Loewe Volume (HMC-1-8, compound A × partner): 7.81 | Synergy Score (HMC-1-8, compound A × partner): 13.30 | Bliss Volume (JIMT-1, compound A × partner): 5.80 | HSA volume (JIMT-1, compound A × partner): 0.54 | Loewe Volume (JIMT-1, compound A × partner): 4.52 | Synergy Score (JIMT-1, compound A × partner): 1.26 | Bliss Volume (KPL-1, compound A × partner): 0.30 | HSA volume (KPL-1, compound A × partner): 1.12 | Loewe Volume (KPL-1, compound A × partner): 1.04 | Synergy Score (KPL-1, compound A × partner): 2.75 | Bliss Volume [12]: 11.46 | HSA volume [12]: 11.54 | Loewe Volume [12]: 11.41 | Bliss Volume [13]: 11.56 | HSA volume [13]: 1.65 | Loewe Volume [13]: 10.58 | Synergy Score [13]: 7.62 | Bliss Volume [14]: 1.26 | HSA volume [14]: −0.76 | Loewe Volume [14]: 1.50 | Synergy Score [14]: 1.17 | Bliss Volume [15]: −3.29 | HSA volume [15]: −1.23 | Loewe Volume [15]: −0.47 | Synergy Score [15]: 3.34 | Bliss Volume [16]: 1.52 | HSA volume [16]: 2.87 | Loewe Volume [16]: 2.94 | Synergy Score [16]: 3.30 | Bliss Volume [17]: −0.77 | HSA volume [17]: −3.96 | Loewe Volume [17]: −1.85 | Synergy Score [17]: 4.79 | Bliss Volume [18]: 6.94 | HSA volume [18]: 6.17 | Loewe Volume [18]: 7.22 | Bliss Volume [19]: −2.14 | HSA volume [19]: −3.78 | Loewe Volume [19]: −2.67 | Synergy Score [19]: 2.05 | Bliss Volume [20]: 2.51 | HSA volume [20]: 0.14 | Loewe Volume [20]: 2.16 | Synergy Score [20]: 1.23 | Bliss Volume [21]: 0.17 | HSA volume [21]: 2.12 | Loewe Volume [21]: 3.30 | Synergy Score [21]: 4.16 | Bliss Volume [22]: 5.80 | HSA volume [22]: 4.00 | Loewe Volume [22]: 6.17 | Synergy Score [22]: 4.22 | Bliss Volume [23]: 1.91 | HSA volume [23]: 1.18 | Loewe Volume [23]: 1.80 | Synergy Score [23]: 4.50
